# Results taken from patent US8221773B2, “Hydrogels and uses thereof” (University of Delaware, priority 2004, dated 2012).
# Entries after “also recorded” stand apart in the source; their conditions may differ. Where no end group is shown, it is not given here.
# Assays:
# [1] = tested on: fibroblasts (NIH 3T3, mouse); assay: Fibroblast adhesion and proliferation on hydrogel by optical microscopy; format: cell-based
# Protocol: These cells were used as a model system because of their importance in connective tissue development and their easily distinguished morphology when adhered to the hydrogel scaffold. Qualitative studies were performed in which cells were added to either polystyrene control wells or wells containing a uniform slab (3 mm thick) of MAX1-hydrogel. Cell adhesion was qualitatively monitored via direct observation of cell spreading after four hours from the time of initial cell seeding by optical microscopy (a quantitative cell attachment assay is described below, see also Akiyama, S. K. Functional analysis of cell adhesion: Quantitation of cell-matrix attachment, 2002; Vol. 69, pp 281-296). Non-adhered fibroblasts have rounded morphologies and adhered fibroblasts have spread morphologies Proliferation was measured both qualitatively by optical microscopy and quantitatively by a ^3H thymidine-based cell seeding assay as described below. Hydrogels were prepared in 48 well tissue culture plates by either one of the following protocols. Protocol 1: MAX1 was dissolved in water (resulting in an acidic solution, pH~5) and an equal volume of buffer (pH 9, 250 mM borate, 20 mM NaCl) was added at room temperature to induce folding/self-assembly resulting in a 2 wt % hydrogel. The resulting gel was bathed in DMEM containing 10% calf serum and […] gentamicin. This allowed media to permeate throughout the gel and adjust the pH to 7.3 The storage moduli (rigidity) of gels prepared by protocol 1 are about 1600 Pa. Protocol 2: MAX1 was dissolved in water and an equal volume of serum free DMEM containing […] gentamicin was added to induce folding/self-assembly affording 2 wt % hydrogels. Depending on the experiment, DMEM containing calf serum can then be added to introduce serum proteins. The storage moduli of gels prepared by protocol 2 are about 1200 Pa. […] Proliferation of the cells occurs until confluency is reached, usually around 72 hours if 10^4 cells are initially plated, FIG. 16B. Cells remain viable for at least a month as long as fresh media is provided (we stopped the assay after 1 month). Cells added to control wells containing no gel show similar behavior, FIGS. 16 C and D. In FIGS. 16A-D, cells are plated in the presence of DMEM containing 10% calf serum. Serum proteins may help mediate cellular adhesion to the hydrogel by first coating the scaffold. To determine if the hydrogel scaffold alone is conducive to cell adhesion, cells were plated onto 2 wt. % hydrogels in the absence of serum. […] The incorporation of cell binding epitopes in peptides used in hydrogel formation may be used to enhance cell adhesion in the absence of serum.
# [2] = Oscillatory rheology of peptide hydrogels (storage and loss moduli); format: physicochemical; settings: 2 wt %, pH 9, 20° C, 6 Hz, 1% strain
# [3] = Hydrogelation by folding and self-assembly; format: physicochemical; settings: pH 9, heating/cooling cycles
# Protocol: The ability of MAX1 to undergo hydrogelation is dependent upon its unimolecular folded state. Under basic aqueous solution conditions (pH 9.0, 125 mM Borate, 10 mM NaCl), where some of the lysine side chains of MAX1 are neutral, this peptide intramolecularly folds into an amphiphilic β-hairpin (folding can also be triggered at pH 7 under physiological conditions). One face of the hairpin is lined with hydrophobic valine residues while the other face is lined with hydrophilic lysine residues, FIGS. 2 and 3A. After intramolecular folding, subsequent self-assembly of hairpins is facilitated (a) laterally via H-bond formation and attractive hydrophobic interactions between distinct hairpins as well as (b) facially by hydrophobic association of the valine-rich faces of the folded peptide resulting in hydrogelation, FIG. 3B. Since the charged state of the lysine residues are controlled by pH, the unimolecular folding is reversible. Lowering the pH below the intrinsic pKa of the lysine side chains results in intra-strand charge repulsion from neighboring lysines and subsequent unfolding of individual hairpins, ultimately dissolving the self-assembled hydrogel structure. This reversible behavior is unique when compared to β-sheet-rich hydrogels prepared from classical fibril-based designs. In these systems, the self-assembly process is irreversible.
# There are reports of large polymers that are thermally responsive. The present invention provides the first system that employs temperature triggered folding to induce self-assembly. […] Heating the solution to 80° C. results in a spectra consistent with β-sheet structure. […] The temperatures used in both CD and rheology bracket the temperature (Tgel=60° C., FIG. 9) at which folding and consequent self-assembly is triggered. […] For example, free flowing peptide solutions could be prepared at room temperature and administered in vivo where the temperature of the body could induce gelation. Some Poly-N-isopropylacrylamide polymers have been engineered have been engineered to undergo such transitions ultimately affording extracellular-like scaffolds for tissue regeneration. The above studies support the idea that the formation of hydrophobic interactions are important. MAX1-3 all contain valines and threonines at hydrogen bonded positions. At these positions, their side chains prefer to adopt a trans rotamer. As a result, hydrophobic residues that oppose each other across the hairpin point their side chains in opposite directions thus making the formation of intramolecular hydrophobic interactions across the strands difficult, FIG. 11A. However, these side chains are nicely positioned to interact laterally with the hydrophobic side chains of neighboring hairpins in the self-assembled state, FIG. 11B. Forming these lateral hydrophobic interactions should favor self-assembly. […] In MAX4, opposing valine side chains are expected to point towards each other, FIG. 11B. Thus, the valine side chains of MAX4 are less likely than those in MAX1 to form lateral intermolecular hydrophobic interactions. If the formation of lateral intermolecular hydrophobic interactions is of more importance for self-assembly than intramolecular hydrophobic contacts, then the rate of self-assembly should be faster for MAX1 than for MAX4. This difference in rate should be evident in the rate of storage moduli (rigidity) increase. […] (Tgel=20° C. for both peptides). […]
sequence,measurement,setting,value
VKVKVKVK V^DPPT KVKVKVKV-NH2 (not fully specified (C-terminus)) [MAX1],time to confluency,"[1]; 2 wt % gel, 10^4 cells initially plated, DMEM with 10% calf serum",around 72 hours
same,fibroblast adhesion to gel surface in the presence of serum,"[1]; 2 wt % gel, DMEM with 10% calf serum, after four hours",adhered; also recorded: efficiently attached
same,"fibroblast attachment and spreading in the absence of serum, compared to serum containing cultures","[1]; 2 wt. % hydrogels, after about four hours",to a lesser extent; also recorded: less efficiently
same,cell proliferation after addition of serum at four hours,"[1]; 2 wt. % hydrogels, plated without serum, 72 hours",near confluency
same,time cells remain viable on gel,[1]; fresh media provided,≥ 1 month
same,gel storage modulus after 30 minutes,[2],~600 Pa
same,reversibility of thermally induced hydrogelation,[3],not reversible
